{"source": "ChEMBL document CHEMBL1146198", "about": "“In vitro studies with DQ-113 and comparison fluoroquinolones to determine propensities to select resistance in gram-positive cocci” (2007)", "type_in_all_cases": "functional", "key": {"Streptococcus pneumoniae [1]": {"tested_on": "Streptococcus pneumoniae", "experiment": "(§1) Effect on 0.5 ug/ml sitafloxacin-selected penicillin-resistant Streptococcus pneumoniae 216 mutant after five passages assessed as susceptibility by agar dilution method"}, "Streptococcus pneumoniae [2]": {"tested_on": "Streptococcus pneumoniae", "experiment": "Effect on 0.06 ug/ml DQ113-selected penicillin-resistant Streptococcus pneumoniae 334 mutant after five passages assessed as susceptibility by agar dilution method"}, "Streptococcus pneumoniae [3]": {"tested_on": "Streptococcus pneumoniae", "experiment": "Effect on 0.06 ug/ml DQ113-selected penicillin-resistant Streptococcus pneumoniae 216 mutant after five passages assessed as susceptibility by agar dilution method"}, "Streptococcus pneumoniae [4]": {"tested_on": "Streptococcus pneumoniae", "experiment": "Effect on 4 ug/ml levofloxacin-selected penicillin-resistant Streptococcus pneumoniae 334 mutant after five passages assessed as susceptibility by agar dilution method"}, "Streptococcus pneumoniae [5]": {"tested_on": "Streptococcus pneumoniae", "experiment": "Effect on 2 ug/ml moxifloxacin-selected penicillin-resistant Streptococcus pneumoniae 216 mutant after five passages assessed as susceptibility by agar dilution method"}, "Streptococcus pneumoniae [6]": {"tested_on": "Streptococcus pneumoniae", "experiment": "Effect on 16 ug/ml ciprofloxacin-selected penicillin-resistant Streptococcus pneumoniae 335 mutant after five passages assessed as susceptibility by agar dilution method"}, "Streptococcus pneumoniae [7]": {"tested_on": "Streptococcus pneumoniae", "experiment": "Effect on 0.5 ug/ml […]-selected penicillin-resistant Streptococcus pneumoniae 335 mutant after five passages assessed as susceptibility by agar dilution method"}, "Enterococcus [8]": {"tested_on": "Enterococcus", "experiment": "Susceptibility of vancomycin-resistant Enterococcus species single-step mutant by agar dilution method"}, "Streptococcus pneumoniae [9]": {"tested_on": "Streptococcus pneumoniae", "experiment": "Effect on 16 ug/ml levofloxacin-selected penicillin-resistant Streptococcus pneumoniae 335 mutant after five passages assessed as susceptibility by agar dilution method"}, "Streptococcus pneumoniae [10]": {"tested_on": "Streptococcus pneumoniae", "experiment": "Effect on 32 ug/ml ciprofloxacin-selected penicillin-resistant Streptococcus pneumoniae 334 mutant after five passages assessed as susceptibility by agar dilution method"}, "Streptococcus pneumoniae [11]": {"tested_on": "Streptococcus pneumoniae", "experiment": "Susceptibility of penicillin-resistant Streptococcus pneumoniae 218 by agar dilution method"}, "Streptococcus pneumoniae [12]": {"tested_on": "Streptococcus pneumoniae", "experiment": "Effect on 0.5 ug/ml moxifloxacin-selected penicillin-resistant Streptococcus pneumoniae 216 mutant after five passages assessed as susceptibility by agar dilution method"}, "Streptococcus pneumoniae [13]": {"tested_on": "Streptococcus pneumoniae", "experiment": "Effect on 16 ug/ml ciprofloxacin-selected penicillin-resistant Streptococcus pneumoniae 218 mutant after five passages assessed as susceptibility by agar dilution method"}, "Streptococcus pneumoniae [14]": {"tested_on": "Streptococcus pneumoniae", "experiment": "Effect on 1 ug/ml moxifloxacin-selected penicillin-resistant Streptococcus pneumoniae 335 mutant after five passages assessed as susceptibility by agar dilution method"}, "Streptococcus pneumoniae [15]": {"tested_on": "Streptococcus pneumoniae", "experiment": "Effect on 0.5 ug/ml sitafloxacin-selected penicillin-resistant Streptococcus pneumoniae 334 mutant after five passages assessed as susceptibility by agar dilution method"}, "Streptococcus pneumoniae [16]": {"tested_on": "Streptococcus pneumoniae", "experiment": "Effect on 1 ug/ml moxifloxacin-selected penicillin-resistant Streptococcus pneumoniae 334 mutant after five passages assessed as susceptibility by agar dilution method"}, "Streptococcus pneumoniae [17]": {"tested_on": "Streptococcus pneumoniae", "experiment": "Effect on 0.03 ug/ml DQ113-selected penicillin-resistant Streptococcus pneumoniae 216 mutant after five passages assessed as susceptibility by agar dilution method"}, "Streptococcus pneumoniae [18]": {"tested_on": "Streptococcus pneumoniae", "experiment": "Susceptibility of penicillin-resistant Streptococcus pneumoniae 335 by agar dilution method"}, "Streptococcus pneumoniae [19]": {"tested_on": "Streptococcus pneumoniae", "experiment": "(§2) Effect on 4 ug/ml levofloxacin-selected penicillin-resistant Streptococcus pneumoniae 216 mutant after five passages assessed as susceptibility by agar dilution method"}, "Streptococcus pneumoniae [20]": {"tested_on": "Streptococcus pneumoniae", "experiment": "Effect on 2 ug/ml moxifloxacin-selected penicillin-resistant Streptococcus pneumoniae 218 mutant after five passages assessed as susceptibility by agar dilution method"}, "Streptococcus pneumoniae [21]": {"tested_on": "Streptococcus pneumoniae", "experiment": "Effect on 32 ug/ml ciprofloxacin-selected penicillin-resistant Streptococcus pneumoniae 216 mutant after five passages assessed as susceptibility by agar dilution method"}, "Streptococcus pneumoniae [22]": {"tested_on": "Streptococcus pneumoniae", "experiment": "Susceptibility of penicillin-resistant Streptococcus pneumoniae 217 by agar dilution method"}, "Streptococcus pneumoniae [23]": {"tested_on": "Streptococcus pneumoniae", "experiment": "as §1", "remark": "listed apart in the source"}, "Streptococcus pneumoniae [24]": {"tested_on": "Streptococcus pneumoniae", "experiment": "Effect on 8 ug/ml ciprofloxacin-selected penicillin-resistant Streptococcus pneumoniae 216 mutant after five passages assessed as susceptibility by agar dilution method"}, "Streptococcus pneumoniae [25]": {"tested_on": "Streptococcus pneumoniae", "experiment": "Susceptibility of penicillin-resistant Streptococcus pneumoniae 334 by agar dilution method"}, "Streptococcus pneumoniae [26]": {"tested_on": "Streptococcus pneumoniae", "experiment": "Effect on 0.06 ug/ml DQ113-selected penicillin-resistant Streptococcus pneumoniae 335 mutant after five passages assessed as susceptibility by agar dilution method"}, "Streptococcus pneumoniae [27]": {"tested_on": "Streptococcus pneumoniae", "experiment": "Effect on 0.06 ug/ml DQ113-selected penicillin-resistant Streptococcus pneumoniae 218 mutant after five passages assessed as susceptibility by agar dilution method"}, "Streptococcus pneumoniae [28]": {"tested_on": "Streptococcus pneumoniae", "experiment": "Effect on 0.5 ug/ml sitafloxacin-selected penicillin-resistant Streptococcus pneumoniae 218 mutant after five passages assessed as susceptibility by agar dilution method"}, "Streptococcus pneumoniae [29]": {"tested_on": "Streptococcus pneumoniae", "experiment": "Effect on 16 ug/ml levofloxacin-selected penicillin-resistant Streptococcus pneumoniae 218 mutant after five passages assessed as susceptibility by agar dilution method"}, "Streptococcus pneumoniae [30]": {"tested_on": "Streptococcus pneumoniae", "experiment": "as §2", "remark": "listed apart in the source"}, "Enterococcus [31]": {"tested_on": "Enterococcus", "experiment": "Susceptibility of drug-selected vancomycin-resistant Enterococcus species mutant by agar dilution method", "conditions": "read-out: MIC"}, "Staphylococcus aureus": {"tested_on": "Staphylococcus aureus", "experiment": "Susceptibility of methicillin-sensitive/resistant Staphylococcus aureus single-step mutant by agar dilution method"}, "Streptococcus pneumoniae [32]": {"tested_on": "Streptococcus pneumoniae", "experiment": "Susceptibility of penicillin-resistant Streptococcus pneumoniae 216 by agar dilution method"}}, "data": [{"smiles": "O=C(O)c1cn(C2CC2)c2cc(N3CCNCC3)c(F)cc2c1=O", "note": "[CIPROFLOXACIN]", "values": [{"measurement": "MIC", "setting": "Streptococcus pneumoniae [1]", "value": 32, "unit": "µg/mL"}, {"measurement": "MIC", "setting": "Streptococcus pneumoniae [2]", "value": 8, "unit": "µg/mL"}, {"measurement": "MIC", "setting": "Streptococcus pneumoniae [3]", "value": 16, "unit": "µg/mL"}, {"measurement": "MIC", "setting": "Streptococcus pneumoniae [4]", "value": 32, "unit": "µg/mL"}, {"measurement": "MIC", "setting": "Streptococcus pneumoniae [5]", "value": 128, "unit": "µg/mL"}, {"measurement": "MIC", "setting": "Streptococcus pneumoniae [6]", "value": 16, "unit": "µg/mL"}, {"measurement": "MIC", "setting": "Streptococcus pneumoniae [7]", "value": 16, "unit": "µg/mL"}, {"measurement": "MIC", "setting": "Enterococcus [8]", "value": 16, "unit": "µg/mL"}, {"measurement": "MIC", "setting": "Streptococcus pneumoniae [9]", "value": 128, "unit": "µg/mL"}, {"measurement": "MIC", "setting": "Streptococcus pneumoniae [10]", "value": 32, "unit": "µg/mL"}, {"measurement": "MIC", "setting": "Streptococcus pneumoniae [11]", "value": 1, "unit": "µg/mL"}, {"measurement": "MIC", "setting": "Streptococcus pneumoniae [12]", "value": 4, "unit": "µg/mL"}, {"measurement": "MIC", "setting": "Streptococcus pneumoniae [13]", "value": 128, "unit": "µg/mL"}, {"measurement": "MIC", "setting": "Streptococcus pneumoniae [14]", "value": 4, "unit": "µg/mL"}, {"measurement": "MIC", "setting": "Streptococcus pneumoniae [15]", "value": 64, "unit": "µg/mL"}, {"measurement": "MIC", "setting": "Streptococcus pneumoniae [16]", "value": 8, "unit": "µg/mL"}, {"measurement": "MIC", "setting": "Streptococcus pneumoniae [17]", "value": 4, "unit": "µg/mL"}, {"measurement": "MIC", "setting": "Streptococcus pneumoniae [18]", "value": 1, "unit": "µg/mL"}, {"measurement": "MIC", "setting": "Streptococcus pneumoniae [19]", "value": 4, "unit": "µg/mL"}, {"measurement": "MIC", "setting": "Streptococcus pneumoniae [20]", "value": 128, "unit": "µg/mL"}, {"measurement": "MIC", "setting": "Streptococcus pneumoniae [21]", "value": 32, "unit": "µg/mL"}, {"measurement": "MIC", "setting": "Streptococcus pneumoniae [22]", "value": 1, "unit": "µg/mL"}, {"measurement": "MIC", "setting": "Streptococcus pneumoniae [23]", "value": 32, "unit": "µg/mL"}, {"measurement": "MIC", "setting": "Streptococcus pneumoniae [24]", "value": 32, "unit": "µg/mL"}, {"measurement": "MIC", "setting": "Streptococcus pneumoniae [25]", "value": 1, "unit": "µg/mL"}, {"measurement": "MIC", "setting": "Streptococcus pneumoniae [26]", "value": 4, "unit": "µg/mL"}, {"measurement": "MIC", "setting": "Streptococcus pneumoniae [27]", "value": 8, "unit": "µg/mL"}, {"measurement": "MIC", "setting": "Streptococcus pneumoniae [28]", "value": 16, "unit": "µg/mL"}, {"measurement": "MIC", "setting": "Streptococcus pneumoniae [29]", "value": 8, "unit": "µg/mL"}, {"measurement": "MIC", "setting": "Streptococcus pneumoniae [30]", "value": 16, "unit": "µg/mL"}]}, {"smiles": "N[C@@H]1CN(c2c(F)cc3c(=O)c(C(=O)O)cn(C4C[C@@H]4F)c3c2Cl)CC12CC2", "note": "(single isomer, unassigned) [SITAFLOXACIN ANHYDROUS]", "values": [{"measurement": "MIC", "setting": "Streptococcus pneumoniae [1]", "value": 2, "unit": "µg/mL"}, {"measurement": "MIC", "setting": "Streptococcus pneumoniae [2]", "value": 0.5, "unit": "µg/mL"}, {"measurement": "MIC", "setting": "Enterococcus [31]", "value": 8, "unit": "µg/mL"}, {"measurement": "MIC", "setting": "Streptococcus pneumoniae [3]", "value": 0.5, "unit": "µg/mL"}, {"measurement": "MIC", "setting": "Streptococcus pneumoniae [4]", "value": 0.5, "unit": "µg/mL"}, {"measurement": "MIC", "setting": "Streptococcus pneumoniae [5]", "value": 4, "unit": "µg/mL"}, {"measurement": "MIC", "setting": "Streptococcus pneumoniae [6]", "value": 0.5, "unit": "µg/mL"}, {"measurement": "MIC", "setting": "Streptococcus pneumoniae [7]", "value": 2, "unit": "µg/mL"}, {"measurement": "MIC", "setting": "Enterococcus [8]", "value": 4, "unit": "µg/mL"}, {"measurement": "MIC", "setting": "Streptococcus pneumoniae [9]", "value": 4, "unit": "µg/mL"}, {"measurement": "MIC", "setting": "Streptococcus pneumoniae [10]", "value": 0.5, "unit": "µg/mL"}, {"measurement": "MIC", "setting": "Streptococcus pneumoniae [11]", "value": 0.12, "unit": "µg/mL"}, {"measurement": "MIC", "setting": "Streptococcus pneumoniae [12]", "value": 0.5, "unit": "µg/mL"}, {"measurement": "MIC", "setting": "Streptococcus pneumoniae [13]", "value": 2, "unit": "µg/mL"}, {"measurement": "MIC", "setting": "Streptococcus pneumoniae [14]", "value": 0.5, "unit": "µg/mL"}, {"measurement": "MIC", "setting": "Streptococcus pneumoniae [15]", "value": 0.5, "unit": "µg/mL"}, {"measurement": "MIC", "setting": "Streptococcus pneumoniae [16]", "value": 0.12, "unit": "µg/mL"}, {"measurement": "MIC", "setting": "Streptococcus pneumoniae [17]", "value": 0.25, "unit": "µg/mL"}, {"measurement": "MIC", "setting": "Streptococcus pneumoniae [18]", "value": 0.12, "unit": "µg/mL"}, {"measurement": "MIC", "setting": "Streptococcus pneumoniae [19]", "value": 0.12, "unit": "µg/mL"}, {"measurement": "MIC", "setting": "Streptococcus pneumoniae [20]", "value": 1, "unit": "µg/mL"}, {"measurement": "MIC", "setting": "Streptococcus pneumoniae [21]", "value": 1, "unit": "µg/mL"}, {"measurement": "MIC", "setting": "Streptococcus pneumoniae [22]", "value": 0.12, "unit": "µg/mL"}, {"measurement": "MIC", "setting": "Streptococcus pneumoniae [23]", "value": 1, "unit": "µg/mL"}, {"measurement": "MIC", "setting": "Streptococcus pneumoniae [24]", "value": 0.5, "unit": "µg/mL"}, {"measurement": "MIC", "setting": "Streptococcus pneumoniae [25]", "value": 0.06, "unit": "µg/mL"}, {"measurement": "MIC", "setting": "Streptococcus pneumoniae [26]", "value": 0.5, "unit": "µg/mL"}, {"measurement": "MIC", "setting": "Streptococcus pneumoniae [27]", "value": 1, "unit": "µg/mL"}, {"measurement": "MIC", "setting": "Staphylococcus aureus", "value": 0.25, "unit": "µg/mL"}, {"measurement": "MIC", "setting": "Streptococcus pneumoniae [28]", "value": 1, "unit": "µg/mL"}, {"measurement": "MIC", "setting": "Streptococcus pneumoniae [29]", "value": 0.5, "unit": "µg/mL"}, {"measurement": "MIC", "setting": "Streptococcus pneumoniae [30]", "value": 0.5, "unit": "µg/mL"}, {"measurement": "MIC", "setting": "Streptococcus pneumoniae [32]", "value": 0.06, "unit": "µg/mL"}]}]}
